One assay relates to ATDC5 cells. Put plainly: Chondrogenesis activity assay in ATDC5 cells (collagen type II induction, immunofluorescence). The assay is classed as cell-based, mouse. Conditions: Mus musculus; for EC50: collagen type II induction in ATDC5 cells, concentration reaching 50% of maximum induction; for Emax: maximum percent induction of collagen type II relative to internal reference compound at 10 μM, ATDC5 cells. The essentials: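 Collagen type II was stained in fixed, permeabilized cells with an Alexa Fluor 488 secondary and measured by high-content fluorescence imaging. ATDC5 cells had 4 days at 37 °C in insulin-supplemented differentiation medium with compound, typically 40 nM–10 μM, 0.1% DMSO. DMSO wells and a 10 μM internal reference compound were used for normalization.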

The subject of assay [1] is primary human chondrocyte pellet cultures. Put plainly: Chondrogenesis activity assay in primary human chondrocyte pellet cultures (proteoglycan (aggrecan) induction, Blyscan assay). The class given is cell-based. Conditions: for EC50: 336 h, proteoglycan (aggrecan) induction, primary human chondrocyte pellets, 2 weeks culture; for Emax: Homo sapiens, Chondrocyte, maximum percent proteoglycan (aggrecan) induction relative to the internal reference compound at 10 μM. Here is the method: B) Chondrogenesis Activity Assay in Primary Human Chondrocyte Pellet Cultures
In this assay human articular chondrocytes are harvested by enzymatic digestion from articular cartilage and passaged several times to dedifferentiate the chondrocytes and to propagate the cells. Cells are cultured as cell pellets in the presence of the compounds of the invention over 2 weeks, and the chondrogenic differentiation is quantified by the production of the chondrogenic marker aggrecan (proteoglycan).
In detail, primary chondrocytes were harvested by enzymatic digestion from cartilage of osteoarthritis patients undergoing knee joint replacement surgery, and cultured in vitro. Cells were passaged one or two times and aliquots were cryopreserved. To initiate chondrogenesis experiments, cell aliquots were thawn, cultured in Chondrocyte Growth Medium (CGM, Lonza, #CC-3216) and passaged twice to further propagate and dedifferentiate cells. Pellet cultures were initiated by seeding 2.5×10E5 cells per well into a 96-well deep well plate in 600 μl chondrocyte differentiation medium consisting of Dulbecco's Modified Eagle Medium (DMEM, Invitrogen, #41966), 1×ITS-solution (Insulin/Transferrin/sodium selenite; 100× solution: Invitrogen, #51500056), 5 μg/mL linoleic acid (Sigma, #L1012-1G), 1× nonessential amino acids (100× solution: Invitrogen, #11140); 10 nM Dexamethasone, 2 ng/ml TGF-β1 (transforming growth factor β1) and 10 μg/ml ascorbic acid. Cells were spun to pellets by centrifugation (10 min, 400×g). Test compounds dissolved in DMSO were added to yield increasing compound concentrations, typically from 40 nM to 10 μM, and a final DMSO concentration of 0.1%, and the cell pellets cultured at 37° C., and 5% CO2 for 2 weeks. On each 96-well plate, control wells containing no test compound but the same concentration of DMSO, i.e. untreated cells, were included and used as reference for the determination of the effect of the test compounds on the cells, and wells containing an internal reference compound at a concentration of 10 μM were included and used as positive control and for standardizing the results. Chondrocyte differentiation medium and the compounds were exchanged twice weekly until harvest of the pellets.
For harvest of the pellets, medium was removed and the pellet was homogenized by enzymatic digestion. 100 μl of protease solution containing 0.4 mg/ml papain, 50 mM sodium phosphate, 4 mM EDTA and 0.48 mg/ml L-cysteine was added to the pellet in each well of a 96-well plate, the plate was sealed with a plate sealer foil (SILVERseal, Greiner Bio-One) and incubated for 4 to 6 hours at 65° C. with agitation.
The concentration of proteoglycan (aggrecan) was determined by quantification of the sulfated glycosaminoglycan side chains of aggrecan using the Blyscan assay (Kit from Biocolor). Aliquots of the papain-digest were transferred to 400 μl of Blyscan dye solution and incubated at room temperature for 45 min with agitation (1200 rpm). The mixture was centrifuged at 3760×g for 45 min, the supernatant was discarded, and the stained pellet was redissolved in 400 μl of Blyscan dissociation reagent by rotation until the precipitate completely resolved. Optical density was measured at 656 nm using a Tecan Saphire2 instrument, and the amount of proteoglycan determined against a standard curve with chondroitin-4-sulfate.
Induction of proteoglycan (aggrecan) was calculated for each compound concentration relative to the control (untreated cells, i.e. no test compound added), and an EC50 value (effective concentration 50 (in μM (micromollliter)), i.e. the compound concentration at which the effect of the compound on proteoglycan (aggrecan) induction reaches 50% of the maximum induction) was calculated using a sigmoidal signal fit procedure. […]

A value given as a limit tells only on which side of the number the result lay.

For 20 molecules, EC50 and Emax results are on record in patent publication US12275733B2, “Substituted pyrido[3,4-b]indoles for the treatment of cartilage disorders” (Sanofi, priority 2016, dated 2025).

What is called EC50 is the concentration at which the effect is half-maximal. What is called Emax is the maximal effect, on the per cent scale that the assay sets. Consider `Cc1nccc2c1[nH]c1c(-c3cccc(OCc4nccn4C)c3)cc(Cl)cc12` [Example 271, 6-Chloro-1-methyl-8-[3-(1-methyl-1H-imidazol-2-ylmethoxy)-phenyl]-9H-pyrido[3,4-b]indole], for which, in the assay on ATDC5 cells, the EC50 is greater than 3300 nM and the Emax lay within 20 to 50%. Also, in assay [1], a half-maximal effect (EC50) was put at 4900 nM and the Emax was greater than 200%.

On to `CCn1c2c(-c3cnn(Cc4cccnc4)c3)cc(Cl)cc2c2ccnc(C)c21` [Example 116, 6-Chloro-9-ethyl-1-methyl-8-(1-pyridin-3-ylmethyl-1H-pyrazol-4-yl)-9H-pyrido[3,4-b]indole], for which, in the assay with ATDC5 cells, the EC50 was found to be 390 nM and the Emax was greater than 80%. For the same molecule, in assay [1], the EC50 was 1300 nM and the Emax fell in the range of 100 to 200%.

For the molecule `Cc1nccc2c1[nH]c1c(-c3ccc(OCc4nccc5ccccc45)cc3)cc(Cl)cc12` [Example 270, 6-Chloro-8-[4-(isoquinolin-1-ylmethoxy)-phenyl]-1-methyl-9H-pyrido[3,4-b]indole], the 50% effective concentration (EC50) in the assay on ATDC5 cells was greater than 1100 nM; in assay [1], 4300 nM. Besides, the Emax in the assay on ATDC5 cells was in the range of 20 to 50%; in assay [1], 40 to 100%.

In the assay on ATDC5 cells, `Cc1ncc(-c2cc(Cl)cc3c4ccncc4n(CC(F)(F)F)c23)s1` [Example 171, 6-Chloro-8-(2-methyl-thiazol-5-yl)-9-(2,2,2-trifluoro-ethyl)-9H-pyrido[3,4-b]indole] gave an EC50 of 1900 nM and an Emax greater than 80%. In assay [1], this molecule yielded an EC50 of 4000 nM and an Emax greater than 200%.

For `COc1ccc(-c2cc(Cl)cc3c4ccnc(C)c4n(C)c23)cc1` [Example 22, 6-Chloro-8-(4-methoxy-phenyl)-1,9-dimethyl-9H-pyrido[3,4-b]indole], in the assay on ATDC5 cells, the EC50 came to 630 nM and the Emax was greater than 80%. In assay [1], the EC50 amounted to 4000 nM and the Emax was greater than 200%.

Take `Cc1nccc2c1[nH]c1c(-c3ccc(CNC4CCCC4)cc3)cc(Cl)cc12` [Example 29, [4-(6-Chloro-1-methyl-9H-pyrido[3,4-b]indol-8-yl)-benzyl]-cyclopentyl-amine]: in the assay with ATDC5 cells, the EC50 was greater than 1100 nM and the Emax is less than 20%. In assay [1], the EC50 came out at 1500 nM and the Emax was in the range of 100 to 200%.

With `Cc1nccc2c1[nH]c1c(-c3ccc(C(=O)NCCN(C)C)cc3)cc(Cl)cc12` [Example 264, 4-(6-Chloro-1-methyl-9H-pyrido[3,4-b]indol-8-yl)-N-(2-dimethylamino-ethyl)-benzamide], in the assay on ATDC5 cells, the EC50 was greater than 1100 nM and the Emax lay within 20 to 50%. Further, in assay [1], the EC50 stood at 1500 nM and the Emax is 40 to 100%.

As for `Cc1nccc2c1[nH]c1c(-c3ccc4c(c3)CCCO4)cc(Cl)cc12` [Example 184, 6-Chloro-8-chroman-6-yl-1-methyl-9H-pyrido[3,4-b]indole], in the assay with ATDC5 cells, the midpoint of the response, the EC50, lay at 3000 nM and the Emax lay in the range of 50 to 80%. In assay [1], this molecule displayed an EC50 of 1900 nM and an Emax of 40 to 100%.

In the assay on ATDC5 cells, `Cc1nccc2c1[nH]c1c(-c3cccc(C(O)c4ccccn4)c3)cc(Cl)cc12` (centres unmarked) [Example 258, [3-(6-Chloro-1-methyl-9H-pyrido[3,4-b]indol-8-yl)-phenyl]-pyridin-2-yl-methanol] had an EC50 greater than 3300 nM and an Emax of less than 20%. In assay [1], this molecule yielded an EC50 of 8200 nM and an Emax of 40 to 100%.

In the assay with ATDC5 cells, `Cc1nccc2c1[nH]c1c(-c3cccc(C=O)c3)cc(Cl)cc12` [Example 250, 3-(6-Chloro-1-methyl-9H-pyrido[3,4-b]indol-8-yl)-benzaldehyde] gave an EC50 greater than 3300 nM and an Emax of 50 to 80%. In assay [1], the EC50 is 4900 nM and the Emax was 100 to 200%.

As for `Cc1nccc2c1[nH]c1c(-c3ccc(OCC4CCN(C)C4)cc3)cc(Cl)cc12` (centres unmarked) [Example 228, 6-Chloro-1-methyl-8-[4-(1-methyl-pyrrolidin-3-ylmethoxy)-phenyl]-9H-pyrido[3,4-b]indole], in the assay with ATDC5 cells, the EC50 amounted to 150 nM and the Emax lay in the range of 50 to 80%. Further, in assay [1], a half-maximal response (EC50) required 140 nM and the Emax was in the range of 100 to 200%.

`Cc1nccc2c1[nH]c1c(-c3ccnc(F)c3Br)cc(Cl)cc12` [Example 245, 8-(3-Bromo-2-fluoro-pyridin-4-yl)-6-chloro-1-methyl-9H-pyrido[3,4-b]indole]: in the assay with ATDC5 cells, the EC50 was greater than 1100 nM and the Emax is less than 20%. In assay [1], this molecule came in with an EC50 of 10000 nM and an Emax of 40 to 100%.

As to `Clc1cc(-c2ccc(Cl)nc2Cl)c2c(c1)c1ccncc1n2CC1CC1` [Example 46, 6-Chloro-9-cyclopropylmethyl-8-(2,6-dichloro-pyridin-3-yl)-pyrido[3,4-b]indole], the EC50 in the assay with ATDC5 cells worked out at 1400 nM; in assay [1] it was 1000 nM. Moreover, the Emax is greater than 80% with ATDC5 cells and 100 to 200% in assay [1].

In the assay on ATDC5 cells, `COc1ccc(-c2cc(Br)cc3c2[nH]c2c(C)nc(C)cc23)cc1` [Example 217, 6-Bromo-8-(4-methoxy-phenyl)-1,3-dimethyl-9H-pyrido[3,4-b]indole] came in with an EC50 greater than 3300 nM and an Emax of 20 to 50%. In assay [1], this molecule returned an EC50 of 4900 nM and an Emax greater than 200%.

In the case of `CCn1c2c(-c3cnn(C)c3)cc(Br)cc2c2ccnc(C)c21` [Example 209, 6-Bromo-9-ethyl-1-methyl-8-(1-methyl-1H-pyrazol-4-yl)-9H-pyrido[3,4-b]indole], in the assay on ATDC5 cells, the EC50 stood at 280 nM and the Emax is greater than 80%. In assay [1], this molecule returned an EC50 of 2600 nM and an Emax greater than 200%.

In the assay on ATDC5 cells, `Cc1nccc2c1[nH]c1c(-c3ccc(OCCn4ccnc4)cc3)cc(Cl)cc12` [Example 194, 6-Chloro-8-[4-(2-imidazol-1-yl-ethoxy)-phenyl]-1-methyl-9H-pyrido[3,4-b]indole] showed an EC50 of 140 nM and an Emax greater than 80%. In assay [1], this molecule displayed an EC50 of 830 nM and an Emax of 100 to 200%.

Turning to `COc1ccc(-c2cc(C#N)cc3c2[nH]c2c(C)nccc23)cc1` [Example 33, 8-(4-Methoxy-phenyl)-1-methyl-9H-pyrido[3,4-b]indole-6-carbonitrile], in the assay with ATDC5 cells, the EC50 was found to be 120 nM and the Emax was greater than 80%. In assay [1], this molecule gave an EC50 of 830 nM and an Emax of 100 to 200%.

With `FC(F)(F)Cn1c2cnccc2c2cc(Cl)cc(-c3cnn(Cc4cccnc4)c3)c21` [Example 2, 6-Chloro-8-(1-(pyridin-3-ylmethyl)-1H-pyrazol-4-yl)-9-(2,2,2-trifluoroethyl)-9H-pyrido[3,4-b]indole], in the assay on ATDC5 cells, the EC50 is 710 nM and the Emax was greater than 80%. Besides, in assay [1], the EC50 stood at 4400 nM and the maximal response (Emax) was greater than 200%.

Regarding `COc1ccc(-c2cc(Cl)c(C)c3c2[nH]c2c(C)nccc23)cc1` [Example 27, 6-Chloro-8-(4-methoxy-phenyl)-1,5-dimethyl-9H-pyrido[3,4-b]indole], in the assay with ATDC5 cells, the EC50 worked out at 97 nM and the Emax was greater than 80%. In assay [1], this molecule returned an EC50 of 3500 nM and an Emax greater than 200%.

As for `Cc1nccc2c1[nH]c1c(-c3ccc(OCC4(C)COC4)cc3)cc(Cl)c(C)c12` [Example 8, 6-Chloro-1,5-dimethyl-8-[4-(3-methyl-oxetan-3-ylmethoxy)-phenyl]-9H-pyrido[3,4-b]indole], in the assay on ATDC5 cells, the midpoint of the response, the EC50, lay at 120 nM and the Emax was greater than 80%. Further, in assay [1], the EC50 stood at 260 nM and the Emax lay within 100 to 200%.
